Measured values taken from patent US20260242419A1, “A CYCLIC PEPTIDE FOR TRAPPING INTERLEUKIN-1 BETA” (Merck Sharp & Dohme LLC, priority 2023, published 2026).
Like-named read-outs stand apart in the source and are kept apart here. Starred links: 1 amine or outer side, 2 acyl side, 3 side chain; linkers in the order of their positions; H or OH if unused. Non-standard residues stand in square brackets, D forms with d. Residues, ends and D or L forms follow the SMILES beside them. *: point of attachment. Phe(4-(5-CO2H-2-pyrimidyl)) = N[C@@H](Cc1ccc(-c2ncc(C(=O)O)cn2)cc1)C(=O)O; dPro(4R-(4-pyridylmethyl)) = O=C(O)[C@H]1C[C@@H](Cc2ccncc2)CN1; Ala(piperidin-4-yl) = O=C([C@H](CC1CCN([*:3])CC1)N[*:1])[*:2]; X17 = CN(C)C(=O)c1ccc(-c2ccc(C[C@H](N[*:1])C(=O)[*:2])cc2)cc1; Trp(βS-Me,4-F) = C[C@@H](c1c[nH]c2cccc(F)c12)[C@H](N)C(=O)O; Bip(4'-COOH) = N[C@@H](Cc1ccc(-c2ccc(C(=O)O)cc2)cc1)C(=O)O; Ala(1-bicyclo(1.1.1)pentyl) = N[C@@H](CC12CC(C1)C2)C(=O)O; dPro(4R-Bzl(4-F)) = O=C(O)[C@H]1C[C@@H](Cc2ccc(F)cc2)CN1; Ala(pyrimidin-5-yl) = N[C@@H](Cc1cncnc1)C(=O)O; Phe(4-COOH) = N[C@@H](Cc1ccc(C(=O)O)cc1)C(=O)O; X24 = NC(=O)c1ncc(C[C@H](N[*:1])C(=O)[*:2])cn1; Bip = N[C@@H](Cc1ccc(-c2ccccc2)cc1)C(=O)O; Pro(cis-4-F) = O=C(O)[C@@H]1C[C@H](F)CN1; AEF = NCCOc1ccc(C[C@H](N)C(=O)O)cc1; Dap(CONH2) = NC(=O)NC[C@H](N)C(=O)O; cisHyp = O=C(O)[C@@H]1C[C@H](O)CN1; d(αMeD) = C[C@@](N)(CC(=O)O)C(=O)O; 4Pal = N[C@@H](Cc1ccncc1)C(=O)O; d(αMeS) = C[C@@](N)(CO)C(=O)O; Cba = N[C@@H](CC1CCC1)C(=O)O; αMeS = C[C@](N)(CO)C(=O)O; dDap = NC[C@@H](N)C(=O)O; Dab = NCC[C@H](N)C(=O)O; Aib = CC(C)(N)C(=O)O; X50 = O=C(c1ccncn1)*

Biological target: T1, IL-1β (Homo sapiens, UniProt P01584)
T1 construct: purchased BioLegend 579404
T1 sequence (P01584 117-269): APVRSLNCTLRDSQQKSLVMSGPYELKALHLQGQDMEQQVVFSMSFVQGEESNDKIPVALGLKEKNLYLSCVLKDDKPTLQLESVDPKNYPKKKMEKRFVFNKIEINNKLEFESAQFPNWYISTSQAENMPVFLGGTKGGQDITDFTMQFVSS
Test: IL-6 assay in MRC5 cells: inhibition of IL-1β induced IL-6 secretion (AlphaLISA)
Type: cell-based
Settings: inhibition of IL-1β induced IL-6 secretion in MRC5 cells, read-out: MRC5 IC50
Summary of the method: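 Compound was pre-incubated 1 h at ambient temperature with recombinant human IL-1β at 2λ EC80 before adding human lung fibroblast MRC5 cells (3000/well) in EMEM with 0.025% BSA. After overnight culture at 37 °C, 5% CO2, secreted IL-6 in conditioned medium was measured by AlphaLISA; IC50 from 4-parameter logistic fits.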

[1] = compound pre-incubated 1 hour with recombinant human IL-1β

Structure (SMILES) | IC50 [nM] | IC50 [1] [nM]
C[C@@H](c1c[nH]c2cccc(F)c12)[C@@H]1NC(=O)[C@@H]2C[C@H](F)CN2C(=O)CNC(=O)[C@H](Cc2ccc(C(=O)O)cc2)NC(=O)[C@H](Cc2ccncc2)NC(=O)[C@H](Cc2ccc(-c3ccc(C(=O)O)cc3)cc2)NC(=O)[C@H]2C[C@@H](Cc3ccc(F)cc3)CN2C(=O)CNC(=O)[C@H](CCN)NC(=O)[C@H](CCC(N)=O)NC(=O)[C@H](Cc2cncnc2)NC(=O)[C@](C)(CO)NC(=O)[C@H](Cc2c[nH]c3ccccc23)NC(=O)[C@H](CCC(=O)O)NC(=O)C(C)(C)NC1=O [Example 18] (cyclo([Bip(4'-COOH)][4Pal][Phe(4-COOH)]G[Pro(cis-4-F)][Trp(βS-Me,4-F)][Aib]EW[αMeS][Ala(pyrimidin-5-yl)]Q[Dab]G[dPro(4R-Bzl(4-F))])) | 0.027 | –
C[C@@H](c1c[nH]c2cccc(F)c12)[C@@H]1NC(=O)[C@@H]2C[C@H](F)CN2C(=O)CNC(=O)[C@H](Cc2ccc(C(=O)O)cc2)NC(=O)[C@H](CC23CC(C2)C3)NC(=O)[C@H](Cc2ccc(-c3ccc(C(=O)O)cc3)cc2)NC(=O)[C@H]2C[C@@H](Cc3ccncc3)CN2C(=O)CNC(=O)[C@H](CO)NC(=O)[C@H](CCC(N)=O)NC(=O)[C@H](CC2CCNCC2)NC(=O)C(C)(C)NC(=O)[C@H](Cc2c[nH]c3ccccc23)NC(=O)[C@H](CCC(=O)O)NC(=O)C(C)(C)NC1=O [Example 176] (cyclo([Bip(4'-COOH)][Ala(1-bicyclo(1.1.1)pentyl)][Phe(4-COOH)]G[Pro(cis-4-F)][Trp(βS-Me,4-F)][Aib]EW[Aib][Ala(piperidin-4-yl)]QSG[dPro(4R-(4-pyridylmethyl))])) | 0.036 | –
C[C@@H](c1c[nH]c2cccc(F)c12)[C@@H]1NC(=O)[C@@H]2C[C@H](F)CN2C(=O)CNC(=O)[C@H](Cc2ccc(C(=O)O)cc2)NC(=O)[C@H](CC23CC(C2)C3)NC(=O)[C@H](Cc2ccc(-c3ccc(C(=O)O)cc3)cc2)NC(=O)[C@H]2C[C@@H](Cc3ccncc3)CN2C(=O)CNC(=O)[C@H](CCN)NC(=O)[C@H](CCC(N)=O)NC(=O)[C@H](CC2CCC2)NC(=O)[C@@](C)(CC(=O)O)NC(=O)[C@H](Cc2c[nH]c3ccccc23)NC(=O)[C@H](CO)NC(=O)C(C)(C)NC1=O [Example 348] (cyclo([Bip(4'-COOH)][Ala(1-bicyclo(1.1.1)pentyl)][Phe(4-COOH)]G[Pro(cis-4-F)][Trp(βS-Me,4-F)][Aib]SW[d(αMeD)][Cba]Q[Dab]G[dPro(4R-(4-pyridylmethyl))])) | 0.018 | –
C[C@@H](c1c[nH]c2cccc(F)c12)[C@@H]1NC(=O)[C@@H]2C[C@H](F)CN2C(=O)CNC(=O)[C@H](Cc2ccc(C(=O)O)cc2)NC(=O)[C@H](Cc2ccncc2)NC(=O)[C@H](Cc2ccc(-c3ccc(C(=O)O)cc3)cc2)NC(=O)[C@H]2C[C@@H](Cc3ccncc3)CN2C(=O)CNC(=O)[C@H](CCN)NC(=O)[C@H](CCC(N)=O)NC(=O)[C@H](Cc2cnc(C(N)=O)nc2)NC(=O)C(C)(C)NC(=O)[C@H](Cc2c[nH]c3ccccc23)NC(=O)[C@H](CO)NC(=O)C(C)(C)NC1=O [Example 267] (cyclo([Bip(4'-COOH)][4Pal][Phe(4-COOH)]G[Pro(cis-4-F)][Trp(βS-Me,4-F)][Aib]SW[Aib][X24]Q[Dab]G[dPro(4R-(4-pyridylmethyl))])) | – | 0.014
C[C@@H](c1c[nH]c2cccc(F)c12)[C@@H]1NC(=O)[C@@H]2C[C@H](F)CN2C(=O)CNC(=O)[C@H](Cc2ccc(C(=O)O)cc2)NC(=O)[C@H](CC23CC(C2)C3)NC(=O)[C@H](Cc2ccc(-c3ccc(C(=O)O)cc3)cc2)NC(=O)[C@H]2C[C@@H](Cc3ccncc3)CN2C(=O)CNC(=O)[C@H](CCN)NC(=O)[C@H](CCC(N)=O)NC(=O)[C@H](Cc2cncnc2)NC(=O)C(C)(C)NC(=O)[C@H](Cc2c[nH]c3ccccc23)NC(=O)[C@H](CO)NC(=O)C(C)(C)NC1=O [Example 44] (cyclo([Aib]SW[Aib][Ala(pyrimidin-5-yl)]Q[Dab]G[dPro(4R-(4-pyridylmethyl))][Bip(4'-COOH)][Ala(1-bicyclo(1.1.1)pentyl)][Phe(4-COOH)]G[Pro(cis-4-F)][Trp(βS-Me,4-F)])) | 0.021 | –
C[C@@H](c1c[nH]c2cccc(F)c12)[C@@H]1NC(=O)[C@@H]2C[C@H](F)CN2C(=O)CNC(=O)[C@H](Cc2ccc(C(=O)O)cc2)NC(=O)[C@H](Cc2ccncc2)NC(=O)[C@H](Cc2ccc(-c3ccccc3)cc2)NC(=O)[C@H]2C[C@@H](Cc3ccncc3)CN2C(=O)CNC(=O)[C@H](CNC(N)=O)NC(=O)[C@H](CCC(N)=O)NC(=O)[C@@H](CN)NC(=O)[C@@](C)(CC(=O)O)NC(=O)[C@H](Cc2c[nH]c3ccccc23)NC(=O)[C@H](CO)NC(=O)C(C)(C)NC1=O [Example 246] (cyclo([Bip][4Pal][Phe(4-COOH)]G[Pro(cis-4-F)][Trp(βS-Me,4-F)][Aib]SW[d(αMeD)][dDap]Q[Dap(CONH2)]G[dPro(4R-(4-pyridylmethyl))])) | – | 0.031
C[C@@H](c1c[nH]c2cccc(F)c12)[C@@H]1NC(=O)[C@@H]2C[C@H](F)CN2C(=O)CNC(=O)[C@H](Cc2ccc(C(=O)O)cc2)NC(=O)[C@H](Cc2ccncc2)NC(=O)[C@H](Cc2ccc(-c3ccc(C(=O)N(C)C)cc3)cc2)NC(=O)[C@H]2C[C@@H](Cc3ccncc3)CN2C(=O)CNC(=O)[C@H](CCN)NC(=O)[C@H](CCC(N)=O)NC(=O)[C@H](Cc2cncnc2)NC(=O)[C@@](C)(CO)NC(=O)[C@H](Cc2c[nH]c3ccccc23)NC(=O)[C@H](CO)NC(=O)C(C)(C)NC1=O [Example 338] (cyclo([X17][4Pal][Phe(4-COOH)]G[Pro(cis-4-F)][Trp(βS-Me,4-F)][Aib]SW[d(αMeS)][Ala(pyrimidin-5-yl)]Q[Dab]G[dPro(4R-(4-pyridylmethyl))])) | 0.018 | –
C[C@@H](c1c[nH]c2cccc(F)c12)[C@@H]1NC(=O)[C@@H]2C[C@H](F)CN2C(=O)CNC(=O)[C@H](Cc2ccc(C(=O)O)cc2)NC(=O)[C@H](Cc2ccncc2)NC(=O)[C@H](Cc2ccc(OCCNC(=O)c3ccncn3)cc2)NC(=O)[C@H]2C[C@@H](Cc3ccncc3)CN2C(=O)CNC(=O)[C@H](CCN)NC(=O)[C@H](CCC(N)=O)NC(=O)[C@H](Cc2cncnc2)NC(=O)C(C)(C)NC(=O)[C@H](Cc2c[nH]c3ccccc23)NC(=O)[C@H](CO)NC(=O)C(C)(C)NC1=O [Example 305] (cyclo([AEF](X50)[4Pal][Phe(4-COOH)]G[Pro(cis-4-F)][Trp(βS-Me,4-F)][Aib]SW[Aib][Ala(pyrimidin-5-yl)]Q[Dab]G[dPro(4R-(4-pyridylmethyl))])) | 0.016 | –
C[C@@H](c1c[nH]c2cccc(F)c12)[C@@H]1NC(=O)[C@@H]2C[C@H](F)CN2C(=O)CNC(=O)[C@H](Cc2ccc(C(=O)O)cc2)NC(=O)[C@H](Cc2ccncc2)NC(=O)[C@H](Cc2ccc(-c3ccc(C(=O)O)cc3)cc2)NC(=O)[C@H]2C[C@@H](Cc3ccncc3)CN2C(=O)CNC(=O)[C@H](CCN)NC(=O)[C@H](CCC(N)=O)NC(=O)[C@@H](CO)NC(=O)[C@@](C)(CC(=O)O)NC(=O)[C@H](Cc2c[nH]c3ccccc23)NC(=O)[C@H](CO)NC(=O)C(C)(C)NC1=O [Example 242] (cyclo([Bip(4'-COOH)][4Pal][Phe(4-COOH)]G[Pro(cis-4-F)][Trp(βS-Me,4-F)][Aib]SW[d(αMeD)][dS]Q[Dab]G[dPro(4R-(4-pyridylmethyl))])) | – | 0.019
C[C@@H](c1c[nH]c2cccc(F)c12)[C@@H]1NC(=O)[C@@H]2C[C@H](F)CN2C(=O)CNC(=O)[C@H](Cc2ccc(C(=O)O)cc2)NC(=O)[C@H](Cc2ccncc2)NC(=O)[C@H](Cc2ccc(-c3ccccc3)cc2)NC(=O)[C@H]2C[C@@H](Cc3ccncc3)CN2C(=O)CNC(=O)[C@H](CCN)NC(=O)[C@H](CCC(N)=O)NC(=O)[C@@H](CCC(=O)O)NC(=O)[C@@](C)(CC(=O)O)NC(=O)[C@H](Cc2c[nH]c3ccccc23)NC(=O)[C@H](CO)NC(=O)C(C)(C)NC1=O [Example 249] (cyclo([Bip][4Pal][Phe(4-COOH)]G[Pro(cis-4-F)][Trp(βS-Me,4-F)][Aib]SW[d(αMeD)][dE]Q[Dab]G[dPro(4R-(4-pyridylmethyl))])) | – | 0.016
C[C@@H](c1c[nH]c2cccc(F)c12)[C@@H]1NC(=O)[C@@H]2C[C@H](O)CN2C(=O)CNC(=O)[C@H](Cc2ccc(C(=O)O)cc2)NC(=O)[C@H](CC23CC(C2)C3)NC(=O)[C@H](Cc2ccc(-c3ncc(C(=O)O)cn3)cc2)NC(=O)[C@H]2C[C@@H](Cc3ccncc3)CN2C(=O)CNC(=O)[C@H](CCN)NC(=O)[C@H](CCC(N)=O)NC(=O)[C@H](Cc2cncnc2)NC(=O)C(C)(C)NC(=O)[C@H](Cc2c[nH]c3ccccc23)NC(=O)[C@H](CO)NC(=O)C(C)(C)NC1=O [Example 185] (cyclo([Phe(4-(5-CO2H-2-pyrimidyl))][Ala(1-bicyclo(1.1.1)pentyl)][Phe(4-COOH)]G[cisHyp][Trp(βS-Me,4-F)][Aib]SW[Aib][Ala(pyrimidin-5-yl)]Q[Dab]G[dPro(4R-(4-pyridylmethyl))])) | 0.043 | –
CC(=O)NCCOc1ccc(C[C@@H]2NC(=O)[C@H]3C[C@@H](Cc4ccc(F)cc4)CN3C(=O)CNC(=O)[C@H](CCN)NC(=O)[C@H](CCC(N)=O)NC(=O)[C@H](Cc3cncnc3)NC(=O)C(C)(C)NC(=O)[C@H](Cc3c[nH]c4ccccc34)NC(=O)[C@H](CCC(=O)O)NC(=O)C(C)(C)NC(=O)[C@H]([C@@H](C)c3c[nH]c4cccc(F)c34)NC(=O)[C@@H]3C[C@H](F)CN3C(=O)CNC(=O)[C@H](Cc3ccc(C(=O)O)cc3)NC(=O)[C@H](Cc3ccncc3)NC2=O)cc1 [Example 10] (cyclo([AEF](Ac)[4Pal][Phe(4-COOH)]G[Pro(cis-4-F)][Trp(βS-Me,4-F)][Aib]EW[Aib][Ala(pyrimidin-5-yl)]Q[Dab]G[dPro(4R-Bzl(4-F))])) | 0.027 | –
